Measured values reported in ChEMBL document CHEMBL1133492, “Design, synthesis, and biological evaluation of fluoronitrophenyl substituted folate analogues as potential inhibitors of GAR transformylase and AICAR transformylase” (Bioorg Med Chem Lett, 2000).

Target: Phosphoribosylglycinamide formyltransferase (Escherichia coli) (UniProt P08179)
Experiment: In vitro inhibitory activity against Glycinamide ribonucleotide transformylase (GAR Tfase) following 30 min pre-incubation at 250 uM concentration

Sequence of Phosphoribosylglycinamide formyltransferase (Escherichia coli) (P08179 whole entry, looked up): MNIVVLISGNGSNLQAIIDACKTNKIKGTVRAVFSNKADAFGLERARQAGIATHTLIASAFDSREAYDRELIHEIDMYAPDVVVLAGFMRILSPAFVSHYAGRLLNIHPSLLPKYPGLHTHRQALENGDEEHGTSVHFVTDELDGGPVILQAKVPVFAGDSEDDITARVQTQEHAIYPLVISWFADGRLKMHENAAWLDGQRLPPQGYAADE

| Compound | inhibition [%] |
| --- | --- |
| Nc1nc(N)c(CCCNc2cc(F)cc(F)c2[N+](=O)[O-])c(O)n1 | 70 |
| COC(=O)c1ccc(CN(CCCc2c(N)nc(N)nc2O)c2cc(F)c(F)cc2[N+](=O)[O-])cc1 | 33 |
| Nc1nc(N)c(CCCNc2cc(F)c([N+](=O)[O-])cc2[N+](=O)[O-])c(O)n1 | 73 |
| COC(=O)c1ccc(CN(CCCc2c(N)nc(N)nc2O)c2cc(F)cc(F)c2[N+](=O)[O-])cc1 | 5 |
| COC(=O)c1ccc(CN(CCc2c(N)nc(N)nc2O)c2cc(F)c(F)cc2[N+](=O)[O-])cc1 | 3 |
| COC(=O)c1ccc(CN(CCCc2c(N)nc(N)nc2O)c2ccc([N+](=O)[O-])c(F)c2F)cc1 | 57 |
| COC(=O)c1ccc(CN(CCCc2c(N)nc(N)nc2O)c2cc(F)c([N+](=O)[O-])cc2[N+](=O)[O-])cc1 | 9 |
| COC(=O)c1ccc(CN(CCCc2c(N)nc(N)nc2O)c2cc(F)ccc2[N+](=O)[O-])cc1 | 41 |
| COC(=O)c1ccc(CN(CCc2c(N)nc(N)nc2O)c2ccc([N+](=O)[O-])c(F)c2F)cc1 | 60 |
| COC(=O)c1ccc(CN(CCc2c(N)nc(N)nc2O)c2cc(F)c([N+](=O)[O-])cc2[N+](=O)[O-])cc1 | 24 |
| COC(=O)c1ccc(CN(CCc2c(N)nc(N)nc2O)c2cc(F)cc(F)c2[N+](=O)[O-])cc1 | 9 |
| Nc1nc(N)c(CCCNc2cc(F)ccc2[N+](=O)[O-])c(O)n1 | 69 |
| Nc1nc(N)c(CCCNc2cc(F)c(F)cc2[N+](=O)[O-])c(O)n1 | 82 |
| COC(=O)c1ccc(CN(CCc2c(N)nc(N)nc2O)c2cc(F)ccc2[N+](=O)[O-])cc1 | 43 |
